# Patent US12060349B2, “Glucosylceramide synthase inhibitors” (Genzyme Corporation, priority 2012, dated 2024)
# Like-named read-outs stand apart in the source and are kept apart here.
# How the values were obtained:
# [1] = target: T1, glucosylceramide synthase (Homo sapiens, UniProt Q16739); experiment: microsomal assay measuring conversion of ceramide to glucosylceramide by HPLC (GCS IC50); assay type: biochemical; details: concentration causing 50% inhibition of glucosylceramide synthase activity
# T1 construct: Microsomes were isolated from A375 human melanoma cells; endogenous in cells; host or cells: A375 human melanoma cells (microsomal fraction, 100,000 g pellet)
# T1 sequence (Q16739 1-394): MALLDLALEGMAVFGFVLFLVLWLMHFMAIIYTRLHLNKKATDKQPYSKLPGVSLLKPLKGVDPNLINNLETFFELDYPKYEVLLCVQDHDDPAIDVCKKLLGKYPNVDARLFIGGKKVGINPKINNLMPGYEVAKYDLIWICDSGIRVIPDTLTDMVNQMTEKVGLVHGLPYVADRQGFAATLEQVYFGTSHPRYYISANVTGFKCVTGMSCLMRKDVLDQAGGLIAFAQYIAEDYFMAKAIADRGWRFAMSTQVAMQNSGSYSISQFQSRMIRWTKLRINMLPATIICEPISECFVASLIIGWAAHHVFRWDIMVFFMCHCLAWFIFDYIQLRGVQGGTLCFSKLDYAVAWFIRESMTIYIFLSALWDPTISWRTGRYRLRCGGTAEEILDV
# How it was run: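 Microsomal preparation assayed for glucosylceramide synthase by direct HPLC measurement of ceramide conversion to glucosylceramide. GCS IC50 is the compound concentration giving 50% inhibition of enzyme activity.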
# [2] = system: GM3 expression on the cell surface, B16 mouse melanoma cells; experiment: cell based phenotypic assay, cell surface GM3 by antibody mediated immunofluorescence, B16 (GM3 B16 IC50); details: 50% inhibition of GM3 expression on the cell surface
# How it was run: (§1)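 B16 mouse and C32 human melanoma cells; cell-surface GM3 measured by antibody-mediated immunofluorescence, giving IC50.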
# [3] = system: GM3 expression on the cell surface, C32 human melanoma cells; experiment: cell based phenotypic assay, cell surface GM3 by antibody mediated immunofluorescence, C32 (GM3 C32 IC50); details: 50% inhibition of GM3 expression on the cell surface
# How it was run: as §1
# B16 mouse melanoma cells = experiment: cell viability in the B16 cell-based assay (Viability, B16 IC50)
# How it was run: (§2)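 Two melanoma lines, mouse B16 and human C32, were treated and surface GM3 quantified by antibody immunofluorescence for IC50. A parallel viability readout gives the concentration killing 50% of cells, with values over 10 indicating no cell death.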
# C32 human melanoma cells = experiment: cell viability in the C32 cell-based assay (Viability, C32 IC50); details: concentration causing 50% cell death, values greater than 10 represent a lack of cell death
# How it was run: as §2
# [4] = Mus musculus, B16 mouse melanoma cells, read-out: GM3 B16 IC50
# [5] = Homo sapiens, C32 human melanoma cells, read-out: GM3 C32 IC50
# [6] = Mus musculus, B16, B16 cells, concentration causing 50% cell death, values greater than 10 represent a lack of cell death, read-out: Viability, B16 IC50
# [7] = Homo sapiens, C32, C32 cells, read-out: Viability, C32 IC50
# [8] = Mus musculus, read-out: GM3 B16 IC50, B16 mouse melanoma cells
# [9] = Homo sapiens, read-out: GM3 C32 IC50, C32 human melanoma cells
# [10] = B16 mouse melanoma cells, read-out: GM3 B16 IC50
# [11] = C32 human melanoma cells, read-out: GM3 C32 IC50
# [12] = C32 cells, read-out: Viability, C32 IC50
Molecule,IC50 [1] [nM],"IC50 [2, 4] [nM]","IC50 [3, 5] [nM]",IC50 (B16 mouse melanoma cells; [6]) [nM],IC50 (C32 human melanoma cells; [7]) [nM],also measured
"CC1(NC(=O)N2CCN(c3cccc(-c4ccccc4)c3)CC2)CN2CCC1CC2 (stereo not shown) [Example 15, 4-([1,1′-Biphenyl]-3-yl)-N-(3-methylquinuclidin-3-yl)piperazine-1-carboxamide]",839,368,172,≥ 10000,≥ 10000,–
"CC(C)(NC(=O)OC1CN2CCC1CC2)c1ccc(-c2ccc(OCCn3cccn3)cc2)cc1 (stereo not shown) [Example 179, Quinuclidin-3-yl (2-(4′-(2-(1H-pyrazol-1-yl)ethoxy)-[1,1′-biphenyl]-4-yl)propan-2-yl)carbamate]",6.73,–,–,–,–,"IC50 [2, 8]: 95.2 nM; IC50 [3, 9]: 4.99 nM; IC50 (B16 mouse melanoma cells; Mus musculus, B16, read-out: Viability, B16 IC50): 8730 nM; IC50 (C32 human melanoma cells; Homo sapiens, C32, read-out: Viability, C32 IC50, C32 cells): 3160 nM"
"CN(C)C(=O)c1ccc(Oc2ccc(C(C)(C)NC(=O)NC3(C)CN4CCC3CC4)cc2)cc1 (stereo not shown) [Example 284, N,N-Dimethyl-4-(4-(2-(3-(3-methylquinuclidin-3-yl)ureido)propan-2-yl)phenoxy)benzamide]",201,3780,60.7,≥ 10000,≥ 10000,–
"COCCCOc1cnc(-c2cccc(C(C)(C)NC(=O)N3CCN4CCC3CC4)c2)cn1 [Example 317, N-(2-(3-(5-(3-Methoxypropoxy)pyrazin-2-yl)phenyl)propan-2-yl)-1,4-diazabicyclo[3.2.2]nonane-4-carboxamide]",295,656,29.1,≥ 10000,1000,–
"CCC1(NC(=O)NC(C)(C)C#Cc2ccc(COCc3cccnc3)cc2)CN2CCC1CC2 (stereo not shown) [Example 332, 1-(3-Ethylquinuclidin-3-yl)-3-(2-methyl-4-(4-((pyridin-3-ylmethoxy)methyl)phenyl)but-3-yn-2-yl)urea]",49.4,945,15.5,≥ 10000,≥ 10000,–
"CC1(NC(=O)C2CN(c3nccc(-c4ccc(F)cc4)n3)C2)CCN2CCC1CC2 (stereo not shown) [Example 113, 1-(4-(4-Fluorophenyl)pyrimidin-2-yl)-N-(4-methyl-1-azabicyclo[3.2.2]nonan-4-yl)azetidine-3-carboxamide]",8.31,546,0.884,≥ 10000,316,–
"CN(C)C(=O)c1ccc(Oc2ccc(C(C)(C)NC(=O)NC3(C)CCN4CCC3CC4)cc2)cc1 (stereo not shown) [Example 285, N,N-Dimethyl-4-(4-(2-(3-(4-methyl-1-azabicyclo[3.2.2]nonan-4-yl)ureido)propan-2-yl)phenoxy)benzamide]",16.3,–,–,≥ 10000,–,"IC50 [2, 10]: 725 nM; IC50 [3, 11]: 6.48 nM; IC50 (C32 human melanoma cells; [12]): 1000 nM"
"CC(C)(NC(=O)NC1(C)CCN2CCC1CC2)c1ccc(Oc2ccc(C(=O)N3CC(F)(F)C3)cc2)cc1 (stereo not shown) [Example 303, 1-(2-(4-(4-(3,3-Difluoroazetidine-1-carbonyl)phenoxy)phenyl)propan-2-yl)-3-(4-methyl-1-aza-bicyclo[3.2.2]nonan-4-yl)urea]",7.63,38.9,1.24,≥ 10000,316,–
"COCCOc1ccc(C#CC(C)(C)NC(=O)OC2CN3CCC2CC3)cc1 (stereo not shown) [Example 329, Quinuclidin-3-yl (4-(4-(2-methoxyethoxy)phenyl)-2-methylbut-3-yn-2-yl)carbamate]",3140,–,–,–,–,"IC50 [2, 8]: 2700 nM; IC50 [3, 9]: 284 nM; IC50 (B16 mouse melanoma cells; read-out: Viability, B16 IC50, B16 cells, concentration causing 50% cell death, values greater than 10 represent a lack of cell death): ≥ 10000 nM; IC50 (C32 human melanoma cells; read-out: Viability, C32 IC50, C32 cells): ≥ 10000 nM"
"CN(C)C(=O)c1cccc(Oc2cccc(C(C)(C)NC(=O)OC3CCN4CCC3CC4)c2)c1 (stereo not shown) [Example 288, 1-Aza-bicyclo[3.2.2]nonan-4-yl 2-(3-(3-(dimethylcarbamoyl)phenoxy)phenyl)propan-2-ylcarbamate]",203,1180,50.2,≥ 10000,≥ 10000,–
"1-Azabicyclo[3.2.2]nonan-3-yl 4-(4′-fluoro-[1,1′-biphenyl]-3-yl)piperazine-1-carboxylate [Example 25]",3480,–,–,–,–,"IC50 [2, 10]: 4860 nM; IC50 [3, 11]: 9380 nM; IC50 (B16 mouse melanoma cells; B16 cells, concentration causing 50% cell death, values greater than 10 represent a lack of cell death, read-out: Viability, B16 IC50): 5390 nM; IC50 (C32 human melanoma cells; [12]): 5410 nM"
"CC1(NC(=O)C2(F)CCN(c3ncnc(Oc4ccc(F)cc4)n3)CC2)CCN2CCC1CC2 (stereo not shown) [Example 117, 4-Fluoro-1-(4-(4-fluorophenoxy)-1,3,5-triazin-2-yl)-N-(4-methyl-1-azabicyclo[3.2.2]nonan-4-yl)piperidine-4-carboxamide]",168,88.4,9.05,≥ 10000,1000,–
"CC(C)(C)CCS(=O)(=O)c1ccc(C#CC(C)(C)NC(=O)OC2CCN3CCC2CC3)cc1 (stereo not shown) [Example 335, 1-Azabicyclo[3.2.2]nonan-4-yl (4-(4-((3,3-dimethylbutyl)sulfonyl)phenyl)-2-methylbut-3-yn-2-yl)carbamate]",14.6,193,4.32,2150,1000,–
"CC(C)(C)CCS(=O)(=O)c1ccc(-c2ccc(C(C)(C)NC(=O)NC3(C)CCN4CCC3CC4)cc2)cc1 (stereo not shown) [Example 248, 1-(2-(4′-((3,3-Dimethylbutyl)sulfonyl)-[1,1′-biphenyl]-4-yl)propan-2-yl)-3-(4-methyl-1-azabicyclo[3.2.2]nonan-4-yl)urea]",0.804,6.84,0.315,7730,1000,–
"O=C(OC1CCN2CCC1CC2)N1CCN(c2cccc(-c3ccc(F)cc3)c2)CC1 (stereo not shown) [Example 24, 1-Azabicyclo[3.2.2]nonan-4-yl 4-(4′-fluoro-[1,1′-biphenyl]-3-yl)piperazine-1-carboxylate]",9520,1680,1080,3610,3980,–
"CC1CN(C(=O)NC2(C)CCN3CCC2CC3)CCN1c1cccc(-c2ccccc2)c1 (stereo not shown) [Example 31, 4-([1,1′-Biphenyl]-3-yl)-3-methyl-N-(4-methyl-1-azabicyclo[3.2.2]nonan-4-yl)piperazine-1-carboxamide]",4.06,70.7,1.51,7620,1000,–
"COCCCOc1ccc(-c2ccc(C(C)(C)NC(=O)NC3(C)CN4CCC3CC4)cc2)cc1 (stereo not shown) [Example 173, 1-(2-(4′-(3-Methoxypropoxy)-[1,1′-biphenyl]-4-yl)propan-2-yl)-3-(3-methylquinuclidin-3-yl)urea]",1.98,20.3,0.766,≥ 10000,≥ 10000,–
"CC1(NC(=O)C2CCN(c3cccc(-c4ccc(F)cc4)c3)CC2)CN2CCC1CC2 (stereo not shown) [Example 33, 1-(4′-Fluoro-[1,1′-biphenyl]-3-yl)-N-(3-methylquinuclidin-3-yl)piperidine-4-carboxamide]",22.1,237,5.02,6910,1000,–
"COCCOc1ccc(-c2ccc(C(C)(C)NC(=O)NC3(C)CCN4CCC3CC4)cc2)cc1 (stereo not shown) [Example 160, 1-(2-(4′-(2-Methoxyethoxy)-[1,1′-biphenyl]-4-yl)propan-2-yl)-3-(4-methyl-1-azabicyclo[3.2.2]nonan-4-yl)urea]",3.91,1.9,0.544,1000,1000,–
"CC1(NC(=O)C2CCN(c3nccc(-c4ccc(F)c(F)c4)n3)CC2)CCN2CCC1CC2 (stereo not shown) [Example 64, 1-(4-(3,4-Difluorophenyl)pyrimidin-2-yl)-N-(4-methyl-1-azabicyclo[3.2.2]nonan-4-yl)piperidine-4-carboxamide]",1.7,32.9,0.062,3420,5530,–
